Assay results taken from patent US20010049373A1, “Materials and methods for killing nematodes and nematode eggs” (priority 2000, published 2001).

What was measured:
Caenorhabditis elegans [1] = assay: C. elegans L1 larvae dose-response, 5 day visual viability score (Examples 2 and 7); type: in vivo; design: key: Dead: only stiff L1s (no movement); Dead (L4): worms are dead, but at a later larval stage; majority of worms are L1 (based on size); majority of worms are L2 (based on size); majority of worms are L3 (based on size); majority of worms are L4 (based on size); AD: majority of worms are adult; #AD: 5 adult worms or less; B!: sterile (0-25 progeny); B: low broodsize (25-100 progeny); ˜B: moderate broodsize (100-250 progeny); <: reduced broodsize (250-500 progeny); OK: no effect (˜1000+ progeny)
Experimental: Caenorhabditis elegans adults were grown on Nematode Growth Medium (NGM) until they produced eggs, then the adults were removed.
The eggs were allowed to hatch, and the L1 larvae collected. See The Neniatode Caenorhabditis elegans (1988) Cold Spring Harbor Laboratory Press. Using a Matrix Programmable Pipette, the L1s were distributed into 96-well tissue culture plates, 20 L1 in 50 μl NGM per well. Antibiotic/Antimyotic was added to each well, and 1% by weight E. coli strain HB101. The subject anthelmintic compounds were stored at 5 mM in 100% DMSO. 0.7 μl of compounds 1-31 were added to the left-most column of wells to yield a final concentration of 70 μM in 1.4% DMSO, with 1.4% DMSO only as the control. The compounds were then subjected to 5 more 3-fold dilutions from left to right to yield 6 column concentrations of 70 μM, 23.3 μM, 7.8 μM, 2.6 μM, 0.9 μM, and 0.3 μM. Plates were stored in air-tight Rubbermaid plastic boxes at 20° C. The nematodes had cleared all control wells by day 4, and nematode viability was scored by visual examination under a 100× dissecting microscope on day 5. A visual viability scoring system was used as follows:
If several classes of worms exist in a well, then all classes are scored. If adults are present, then the brood score is also recorded. Thus, “L1/L2” would mean a mixture of L1's and L2's are present in the well. “L4/#AD/B” would mean that a mixture of L4's and adults are resent in the well. The “#AD” would mean that there are 6 or less adults, and the “B” would mean that there were 100 progeny or less.
Column VI has a compound concentration of 70 μM with sequential 3-fold dilutions reported in columns V2, V3, V4, V5, and V6, respectively, such that the V6 concentration was 0.3 μM.
(§1) The nematicidal activity of anthelmintic Compositions 48-118 were determined in accordance with the procedure outlined in Example 2.

Caenorhabditis elegans [2] = assay: HTS runs (initial and follow-up): mOD, % Run and visual score (Table 3); type: in vivo; design: key to Initial HTS Run Visual Score / Follow-up HTS Run Visual Score: Dead: only stiff L1s (no movement); Dead (L4): worms are dead, but at a later larval stage; majority of worms are L1 (based on size); majority of worms are L2 (based on size); majority of worms are L3 (based on size); majority of worms are L4 (based on size); AD: majority of worms are adult; #AD: 5 adult worms or less; B!: sterile (0-25 progeny); B: low broodsize (25-100 progeny); ˜B: moderate broodsize (100-250 progeny); <: reduced broodsize (250-500 progeny); OK: no effect (˜1000+ progeny)
Experimental: as §1

[3] = 0.3 μM, viability scored day 5, Table 1
[4] = 2.6 μM, viability scored day 5, Table 1
[5] = 23.3 μM, viability scored day 5, Table 1
[6] = 70 μM, viability scored day 5, Table 1
[7] = 7.8 μM, viability scored day 5, Table 1
[8] = 0.9 μM, viability scored day 5, Table 1
[9] = 0.3 μM (procedure of Example 2), day 5, Table 3
[10] = 0.9 μM (procedure of Example 2), day 5, Table 3
[11] = 7.8 μM (procedure of Example 2), day 5, Table 3
[12] = 23.3 μM (procedure of Example 2), day 5, Table 3
[13] = 70 μM (procedure of Example 2), day 5, Table 3
[14] = 2.6 μM (procedure of Example 2), day 5, Table 3

Compound	5 Day Visual Score V6 (Caenorhabditis elegans [1]; [3])	5 Day Visual Score V4 (Caenorhabditis elegans [1]; [4])	5 Day Visual Score V2 (Caenorhabditis elegans [1]; [5])	5 Day Visual Score V1 (Caenorhabditis elegans [1]; [6])	5 Day Visual Score V3 (Caenorhabditis elegans [1]; [7])	further results
O=C(Nc1ccc(OC(F)(F)F)cc1)NC1CCC(c2nc(-c3ccccc3)no2)CC1 (stereo not shown) [AKC 107]	L2/Dead(L	Dead(L4)	Dead(L2/L3)	Dead	–	–
O=C(Nc1ccc(Br)cc1)N1CCC(c2nc(-c3ccccc3)no2)CC1 [AKC 108]	–	L1	Dead	Dead	L1	–
O=C(NCCc1ccccc1F)C1C(c2ccccc2Cl)=NOC1c1ccc(-c2ccccc2)cc1 (stereo not shown) [AKC 110]	L1	L1	L1	L1	L1	5 Day Visual Score V5 (Caenorhabditis elegans [1]; [8]): L1
COc1ccccc1-c1noc(C(C)CNC(=O)Nc2ccc(OC(F)(F)F)cc2)n1 (stereo not shown) [AKC 111]	OK (no effect (˜1000+ progeny))	Dead(L3/L	Dead	Dead	L2	–
Cc1ccc(-c2noc(C3CCC(CNC(=O)Nc4ccc(OC(F)(F)F)cc4)CC3)n2)cc1C (stereo not shown) [AKC 112]	OK (no effect (˜1000+ progeny))	–	–	–	–	5 Day Visual Score V5 (Caenorhabditis elegans [1]; [8]): #AD/˜B
O=C(NCC1CCC(c2nc(-c3ccccc3)no2)CC1)Nc1ccc(OC(F)(F)F)cc1 (stereo not shown) [AKC 113]	L4/#AD/B	Dead(L2/L	Dead	Dead	Dead	–
O=C(Nc1ccc(Br)cc1)NC1CCC(c2nc(-c3ccccc3)no2)CC1 (stereo not shown) [AKC 114]	B (low broodsize (25-100 progeny))	L3/Dead(L	L3/Dead(L4)	Dead	L3	–
O=C(NCCCCCc1nc(-c2ccccc2)no1)Nc1ccc(OC(F)(F)F)cc1 [AKC 115]	–	Dead(L2)	Dead(L2/L3)	Dead	L2/Dead(L2)	5 Day Visual Score V5 (Caenorhabditis elegans [1]; [8]): Dead(L2/L
CC(C)(C)C1=NOC(c2ccc(-c3ccccc3)cc2)C1C(=O)NCCc1ccccc1F (stereo not shown) [AKC 120]	OK (no effect (˜1000+ progeny))	–	–	L1	L1	5 Day Visual Score V5 (Caenorhabditis elegans [1]; [8]): #AD/˜B
COc1ccc(C2=NOC(c3ccc(-c4ccccc4)cc3)C2C(=O)NCCc2ccccc2F)cc1 (stereo not shown) [AKC 121]	< (reduced broodsize (250-500 progeny))	#AD/˜B	L1	L1	–	–
CCOc1ccc(C2ON=C(c3ccc(F)cc3)C2C(=O)NCCc2ccc(F)cc2)cc1 (stereo not shown) [AKC 122]	OK (no effect (˜1000+ progeny))	–	L1	Dead	–	–
CCOc1ccc(C2ON=C(c3ccc(N(C)C)cc3)C2C(=O)NCCc2ccc(F)cc2)cc1 (stereo not shown) [AKC 123]	#AD/˜B	< (reduced broodsize (250-500 progeny))	–	L1	–	–
CCOc1cccc(C2ON=C(c3ccccc3OCC)C2C(=O)NCCc2ccc(OC)c(OCC)c2)c1 (stereo not shown) [AKC 124]	L4/#AD/B	L4/#AD/B	–	–	–	5 Day Visual Score V5 (Caenorhabditis elegans [1]; [8]): L4/#AD/B
CCOc1cccc(C2ON=C(c3ccccc3OCC)C2C(=O)NCc2ccc(OC(F)(F)F)cc2)c1 (stereo not shown) [AKC 125]	< (reduced broodsize (250-500 progeny))	L2	L2/Dead(L4)	L2/Dead(L3)	L2	–
CCC1CCCCN1c1cc(Oc2ccc(-c3ccccc3)cc2)ncn1 (stereo not shown) [AKC 148]	–	–	–	–	–	5 Day Visual Score V6 (Caenorhabditis elegans [1]; [9]): ˜B (moderate broodsize (100-250 progeny)); 5 Day Visual Score V5 (Caenorhabditis elegans [1]; [10]): ˜B (moderate broodsize (100-250 progeny)); 5 Day Visual Score V3 (Caenorhabditis elegans [1]; [11]): Dead; 5 Day Visual Score V2 (Caenorhabditis elegans [1]; [12]): Dead; 5 Day Visual Score V1 (Caenorhabditis elegans [1]; [13]): Dead; Follow-up HTS Run % Run (Caenorhabditis elegans [2]): 126%; Follow-up HTS Run Visual Score (Caenorhabditis elegans [2]): Dead; Follow-up HTS Run mOD (Caenorhabditis elegans [2]): 170 mOD; Initial HTS Run % Run (Caenorhabditis elegans [2]): 143%; Initial HTS Run Visual Score (Caenorhabditis elegans [2]): Dead-Black Husk; Initial HTS Run mOD (Caenorhabditis elegans [2]): 278 mOD
CC(CCc1ccccc1)Nc1cc(Oc2ccc(-c3ccccc3)cc2)ncn1 (stereo not shown) [AKC 149]	–	–	–	–	–	5 Day Visual Score V6 (Caenorhabditis elegans [1]; [9]): < (reduced broodsize (250-500 progeny)); 5 Day Visual Score V5 (Caenorhabditis elegans [1]; [10]): < (reduced broodsize (250-500 progeny)); 5 Day Visual Score V3 (Caenorhabditis elegans [1]; [11]): Dead; 5 Day Visual Score V2 (Caenorhabditis elegans [1]; [12]): Dead; 5 Day Visual Score V1 (Caenorhabditis elegans [1]; [13]): Dead; Follow-up HTS Run % Run (Caenorhabditis elegans [2]): 100%; Follow-up HTS Run Visual Score (Caenorhabditis elegans [2]): Dead; Follow-up HTS Run mOD (Caenorhabditis elegans [2]): 135 mOD; Initial HTS Run % Run (Caenorhabditis elegans [2]): 133%; Initial HTS Run Visual Score (Caenorhabditis elegans [2]): Dead; Initial HTS Run mOD (Caenorhabditis elegans [2]): 259 mOD
FC(F)(F)c1ccccc1CNc1cc(Oc2ccc(-c3ccccc3)cc2)ncn1 [AKC 339]	–	–	–	–	–	5 Day Visual Score V6 (Caenorhabditis elegans [1]; [9]): OK (no effect (˜1000+ progeny)); 5 Day Visual Score V5 (Caenorhabditis elegans [1]; [10]): OK (no effect (˜1000+ progeny)); 5 Day Visual Score V4 (Caenorhabditis elegans [1]; [14]): OK (no effect (˜1000+ progeny)); 5 Day Visual Score V3 (Caenorhabditis elegans [1]; [11]): OK (no effect (˜1000+ progeny)); 5 Day Visual Score V2 (Caenorhabditis elegans [1]; [12]): OK (no effect (˜1000+ progeny)); 5 Day Visual Score V1 (Caenorhabditis elegans [1]; [13]): OK (no effect (˜1000+ progeny)); Follow-up HTS Run % Run (Caenorhabditis elegans [2]): 113%; Follow-up HTS Run Visual Score (Caenorhabditis elegans [2]): B (low broodsize (25-100 progeny)); Follow-up HTS Run mOD (Caenorhabditis elegans [2]): 153 mOD; Initial HTS Run % Run (Caenorhabditis elegans [2]): 142%; Initial HTS Run Visual Score (Caenorhabditis elegans [2]): 1AD/B; Initial HTS Run mOD (Caenorhabditis elegans [2]): 277 mOD
c1ccc2c(c1)CCN(c1cc(Oc3ccc4ccccc4c3)ncn1)C2 [AKC 342]	–	–	–	–	–	5 Day Visual Score V6 (Caenorhabditis elegans [1]; [9]): OK (no effect (˜1000+ progeny)); 5 Day Visual Score V5 (Caenorhabditis elegans [1]; [10]): OK (no effect (˜1000+ progeny)); 5 Day Visual Score V4 (Caenorhabditis elegans [1]; [14]): ˜B (moderate broodsize (100-250 progeny)); Follow-up HTS Run % Run (Caenorhabditis elegans [2]): 92%; Follow-up HTS Run Visual Score (Caenorhabditis elegans [2]): B!-Healthy; Follow-up HTS Run mOD (Caenorhabditis elegans [2]): 124 mOD; Initial HTS Run % Run (Caenorhabditis elegans [2]): 106%; Initial HTS Run Visual Score (Caenorhabditis elegans [2]): L4/AD/B!; Initial HTS Run mOD (Caenorhabditis elegans [2]): 207 mOD
O=C(NCCc1ccccc1F)C1C(c2ccc(F)cc2)=NOC1c1ccc(-c2ccccc2)cc1 (stereo not shown) [AKC 2153]	–	–	L1	L1	–	–
